Results from patent publication US9169217B2, “Arylalkyl esters of 4-amino-6-(substituted phenyl)-picolinates and 6-amino-2-(substituted phenyl)-pyrimidinecarboxylates and their use as selective herbicides for crops” (Dow AgroSciences LLC, priority 2011, dated 2015).

How the values were obtained:
Type in all cases: in vivo
[1] = system: Setaria viridis (Foxtail, green); assay: Postemergence herbicidal activity in cereal crops (Example 14); settings: wheat cropping systems, postemergence spray, 17.5 g ae/ha, 21 DAA
Method: (§1) Seeds of the desired test plant species were planted in Sun Gro Metro-Mix® 360 planting mixture, which typically has a pH of 6.0 to 6.8 and an organic matter content of about 30 percent, in plastic pots with a surface area of 84.6 cm^2. When required to ensure good germination and healthy plants, a fungicide treatment and/or other chemical or physical treatment was applied. The plants were grown for 7-36 d in a greenhouse with an approximate 14 h photoperiod which was maintained at about 18° C. during the day and 17° C. during the night. Nutrients and water were added on a regular basis and supplemental lighting was provided with overhead metal halide 1000-Watt lamps as necessary. The plants were employed for testing when they reached the second or third true leaf stage.
(§2) Treatments consisted of esters of compounds 33, 34, 39, 40 and 42 and B, F, G and H. Compound B is methyl 4-amino-3-chloro-6-(4-cyclopropylphenyl)-5-fluoropicolinate; compound F is methyl 6-amino-2-(4-chloro-2-fluoro-3-methoxyphenyl)-5-methoxypyrimidine-4-carboxylate; compound G is methyl 4-amino-3-chloro-6-(4-chloro-2-fluoro-3-methoxyphenyl)picolinate; and compound H is methyl 4-amino-3-chloro-6-(4-chloro-2-fluoro-3-(1-fluoroethyl)phenyl)-5-fluoropicolinate. A weighed amount, determined by the highest rate to be tested, of each test compound was placed in a 25 mL glass vial and was dissolved in 8 mL of a 97:3 v/v mixture of acetone and DMSO to obtain concentrated stock solutions. […] The concentrated stock solutions obtained were diluted with 16 mL of an aqueous mixture containing acetone, water, isopropyl alcohol, DMSO, Agri-dex crop oil concentrate, and Triton® X-77 surfactant in a 64.7:26.0:6.7:2.0:0.7:0.01 v/v ratio to obtain spray solutions containing the highest application rates. Additional application rates were obtained by serial dilution of 12 mL of the high rate solution into a solution containing 4 mL of a 97:3 v/v mixture of acetone and DMSO and 8 mL of an aqueous mixture containing acetone, water, isopropyl alcohol, DMSO, Agri-dex crop oil concentrate, and Triton® X-77 surfactant in a 48.5:39.0:10.0:1.5:1.0:0.02 v/v ratio to obtain ½×, ¼×, ⅛× and 1/16× rates of the high rate. Compound requirements are based upon a 12 mL application volume at a rate of 187 L/ha. Formulated compounds were applied to the plant material with an overhead Mandel track sprayer equipped with 8002E nozzles calibrated to deliver 187 L/ha over an application area of 0.503 m^2 at a spray height of 18 inches (43 cm) above average plant canopy height. Control plants were sprayed in the same manner with the blank.
(§3) The treated plants and control plants were placed in a greenhouse as described above and watered by sub-irrigation to prevent wash-off of the test compounds. After 20-22 d, the condition of the test plants as compared with that of the untreated plants was determined visually and scored on a scale of 0 to 100 percent where 0 corresponds to no injury and 100 corresponds to complete kill.

[2] = system: Lolium multiflorum (Ryegrass, Italian); assay: as above; settings: wheat cropping systems, postemergence spray, 17.5 g ae/ha, 21 DAA
Method: as §1, §2, §3

[3] = system: Matricaria chamomilla (Mayweed, wild); assay: as above; settings: wheat cropping systems, postemergence spray, 35 g ae/ha, 21 DAA
Method: as §1, §2, §3

Avena fatua (Oat, wild) = assay: as above; settings: wheat cropping systems, postemergence spray, 35 g ae/ha, 21 DAA
Method: as §1, §2, §3

[4] = system: Veronica persica (Speedwell, birdseye); assay: as above; settings: wheat cropping systems, postemergence spray, 8.75 g ae/ha, 21 DAA
Method: as §1, §2, §3

[5] = system: Pennisetum glaucum (Foxtail, yellow); assay: as above; settings: wheat cropping systems, postemergence spray, 8.75 g ae/ha, 21 DAA
Method: as §1, §2, §3

[6] = system: Brassica sinapis (Mustard, wild); assay: as above; settings: wheat cropping systems, postemergence spray, 8.75 g ae/ha, 21 DAA
Method: as §1, §2, §3

[7] = system: Echinochloa crus-galli (L.) P.BEAUV. (barnyardgrass); assay: In-water applied herbicidal activity in transplanted paddy rice (Example 17); settings: Echinochloa crus-galli, 504 h; rice cropping systems, in-water applied (paddy), 35 g ae/ha, 21 DAA; may represent multiple trials; read-out: Visual Injury (%) ECHCG
Method: (§4) Weed seeds or nutlets of the desired test plant species were planted in puddled soil (mud) prepared by mixing a non-sterilized mineral soil (28 percent silt, 18 percent clay, and 54 percent sand, with a pH of about 7.3 to 7.8 and an organic matter content of about 1.0 percent) and water at a ratio of 100 kilograms (kg) of soil to 19 liters (L) of water. The prepared mud was dispensed in 250 mL aliquots into 480 mL non-perforated plastic pots with a surface area of 91.6 cm^2 leaving a headspace of 3 cm in each pot. Rice seeds were planted in Sun Gro MetroMix 306 planting mixture, which typically has a pH of 6.0 to 6.8 and an organic matter content of about 30 percent, in plastic plug trays. Seedlings at the second or third leaf stage of growth were transplanted into 650 mL of mud contained in 960 mL non-perforated plastic pots with a surface area of 91.6 cm^2 four days prior to herbicide application. The paddy was created by filling the 3 cm headspace of the pots with water. When required to ensure good germination and healthy plants, a fungicide treatment and/or other chemical or physical treatment was applied. The plants were grown for 4-14 d in a greenhouse with an approximate 14-h photoperiod which was maintained at about 29° C. during the day and 26° C. during the night. Nutrients were added as Osmocote (17:6:10, Nitrogen:Phosphorus:Potassium (N:P:K)+minor nutrients) at 2 grams (g) per cup. Water was added on a regular basis to maintain the paddy flood, and supplemental lighting was provided with overhead metal halide 1000-Watt lamps as necessary. The plants were employed for testing when they reached the second or third true leaf stage.
(§5) Treatments consisted of esters of compounds 1-4, 6-33, 35-39, 41 and 42 and A-G. Compound A is methyl 4-amino-3-chloro-6-(4-chloro-3-ethoxy-2-fluorophenyl)-5-fluoropicolinate; compound B is methyl 4-amino-3-chloro-6-(4-cyclopropylphenyl)-5-fluoropicolinate; compound C is methyl 4-amino-3-chloro-6-(2,4-dichloro-3-methoxyphenyl)picolinate; compound D is methyl 6-amino-2-(4-chloro-2-fluoro-3-methoxyphenyl)-5-vinylpyrimidine-4-carboxylate; compound E is methyl 4-amino-3-chloro-6-(4-chloro-2-fluoro-3-methoxyphenyl)-5-fluoropicolinate; compound F is methyl 6-amino-2-(4-chloro-2-fluoro-3-methoxyphenyl)-5-methoxypyrimidine-4-carboxylate; and compound G is methyl 4-amino-3-chloro-6-(4-chloro-2-fluoro-3-methoxyphenyl)picolinate. Weighed amounts of technical grade compounds were placed in individual 120 mL glass vials and were dissolved in 20 mL of acetone to obtain concentrated stock solutions. […] The concentrated stock solutions obtained were diluted with 20 mL of an aqueous mixture containing 2.5% Agri-dex crop oil concentrate (v/v). The final application solutions contained 1.25% (v/v) Agri-dex crop oil concentrate. Generally, multiple concentrations were tested utilizing the same stock solution. Applications were made by injecting an appropriate amount of the application solution into the aqueous layer of the paddy. Control plants were treated in the same manner with the solvent blank.
(§6) The treated plants and control plants were placed in a greenhouse as described above and water was added as needed to maintain a paddy flood. After 3 weeks the condition of the test plants, compared with that of the untreated plants, was determined visually and scored on a scale of 0 to 100 percent where 0 corresponds to no injury and 100 corresponds to complete kill.
(§7) By applying the well-accepted probit analysis as described by J. Berkson in Journal of the American Statistical […], 48, 565 (1953) and by D. Finney in “Probit Analysis” Cambridge University Press (1952), the data gathered can be used to calculate GR50 and GR80 values, which are defined as growth reduction factors that correspond to the effective dose of herbicide required to kill or control 50 percent or 80 percent, respectively, of a target plant.

[8] = system: Cyperus rotundus L. (purple nutsedge); assay: as above; settings: rice cropping systems, 35 g ae/ha, 21 DAA, may represent multiple trials
Method: as §4, §5, §6, §7

[9] = system: Scirpus juncoides ROXB. (Japanese bulrush); assay: as above; settings: Schoenoplectiella juncoides, 504 h; rice cropping systems, in-water applied (paddy), 35 g ae/ha, 21 DAA; may represent multiple trials; read-out: Visual Injury (%) SCPJU
Method: as §4, §5, §6, §7

[10] = system: Scirpus juncoides ROXB. (Japanese bulrush); assay: Postemergence foliar-applied herbicidal activity in direct seeded rice (Example 16); settings: Schoenoplectiella juncoides, post-emergence, 504 h; rice cropping systems, foliar-applied, 8.75 g ae/ha, 21 DAA; may represent multiple trials; read-out: Visual Injury (%) SCPJU
Description: (§8) Seeds or nutlets of the desired test plant species were planted in a soil matrix prepared by mixing a loam soil (43 percent silt, 19 percent clay, and 38 percent sand, with a pH of about 8.1 and an organic matter content of about 1.5 percent) and river sand in an 80 to 20 ratio. The soil matrix was contained in plastic pots with a surface area of 139.7 cm^2. When required to ensure good germination and healthy plants, a fungicide treatment and/or other chemical or physical treatment was applied. The plants were grown for 10-17 d in a greenhouse with an approximate 14-h photoperiod which was maintained at about 29° C. during the day and 26° C. during the night. Nutrients and water were added on a regular basis and supplemental lighting was provided with overhead metal halide 1000-Watt lamps as necessary. The plants were employed for testing when they reached the second or third true leaf stage.
(§9) Treatments consisted of esters of compounds 1-4, 6-8, 10, 11, 13-16, 20-31, 35, 38, 41 and 42 and A-E. Compound A is methyl 4-amino-3-chloro-6-(4-chloro-3-ethoxy-2-fluorophenyl)-5-fluoropicolinate; compound B is methyl 4-amino-3-chloro-6-(4-cyclopropylphenyl)-5-fluoropicolinate; compound C is methyl 4-amino-3-chloro-6-(2,4-dichloro-3-methoxyphenyl)picolinate; compound D is methyl 6-amino-2-(4-chloro-2-fluoro-3-methoxyphenyl)-5-vinylpyrimidine-4-carboxylate; and compound E is methyl 4-amino-3-chloro-6-(4-chloro-2-fluoro-3-methoxyphenyl)-5-fluoropicolinate. Weighed amounts of technical grade compounds were placed in 25 mL glass vials and dissolved in a volume of 97:3 v/v acetone-DMSO to obtain 12× stock solutions. […] The concentrated stock solutions were added to the spray solutions so that the final acetone and DMSO concentrations were 16.2% and 0.5%, respectively. Spray solutions were diluted to the appropriate final concentrations with the addition of 10 mL of an aqueous mixture of 1.5% (v/v) Agri-dex crop oil concentrate. Generally, multiple concentrations of spray solutions were formulated and tested utilizing the same stock solution. The final spray solutions contained 1.25% (v/v) Agri-dex crop oil concentrate. Compound requirements are based upon a 12 mL application volume at a rate of 187 L/ha. Spray solutions were applied to the plant material with an overhead Mandel track sprayer equipped with 8002E nozzles calibrated to deliver 187 L/ha over an application area of 0.503 square meters (m^2) at a spray height of 18 inches (43 cm) above average plant canopy height. Control plants were sprayed in the same manner with the solvent blank.
as §3, with “After 3 weeks,” for “After 20-22 d,”, “test plants,” for “test plants as”, “untreated plants,” for “untreated plants”
as §7

[11] = system: Cyperus difformis L. (small-flower flatsedge); assay: as above; settings: post-emergence, 504 h, rice cropping systems, foliar-applied, 8.75 g ae/ha, 21 DAA, may represent multiple trials, read-out: Visual Injury (%) CYPDI
Description: as §8, §9
as §3, with “After 3 weeks,” for “After 20-22 d,”, “test plants,” for “test plants as”, “untreated plants,” for “untreated plants”
as §7

[12] = system: Echinochloa colonum (L.) LINK (junglerice); assay: as above; settings: Echinochloa colona, post-emergence, 504 h, rice cropping systems, 8.75 g ae/ha, 21 DAA, may represent multiple trials, read-out: Visual Injury (%) ECHCO
Description: as §8, §9
as §3, with “After 3 weeks,” for “After 20-22 d,”, “test plants,” for “test plants as”, “untreated plants,” for “untreated plants”
as §7

[13] = system: Brachiaria platyphylla (GRISEB.) NASH (broadleaf signalgrass); assay: as above; settings: rice cropping systems, 8.75 g ae/ha, 21 DAA, may represent multiple trials
Description: as §8, §9
as §3, with “After 3 weeks,” for “After 20-22 d,”, “test plants,” for “test plants as”, “untreated plants,” for “untreated plants”
as §7

Row | SMILES | Visual Injury (%) VERPE [4] | Visual Injury (%) PESGL [5] | Visual Injury (%) SINAR [6] | pest or weed control at 35 g/ha [7] | pest or weed control at 35 g/ha [9] | pest or weed control at 8.75 g/ha [10] | pest or weed control at 8.75 g/ha [11] | pest or weed control at 8.75 g/ha [12] | Visual Injury (%) BRAPP [13] | other results
1 | COc1c(N)nc(-c2ccc(Cl)c(OC)c2F)nc1C(=O)OCCc1ccccc1 [Compound 34] | – | – | – | – | – | – | – | – | – | Visual Injury (%) SETVI [1]: 80%; Visual Injury (%) LOLMU [2]: 70%; Visual Injury (%) MATCH [3]: 20%; Visual Injury (%) AVEFA (Avena fatua (Oat, wild)): 40%
2 | COC(=O)c1nc(-c2ccc(Cl)c(C(C)F)c2F)c(F)c(N)c1Cl (stereo not drawn) [Compound H, methyl 4-amino-3-chloro-6-(4-chloro-2-fluoro-3-(1-fluoroethyl)phenyl)-5-fluoropicolinate, reference compound] | 80% | 0% | 87% | – | – | – | – | – | – | –
3 | CC(F)c1c(Cl)ccc(-c2nc(C(=O)OCc3ccccc3)c(Cl)c(N)c2F)c1F (stereo not drawn) [Compound 40, benzyl 4-amino-3-chloro-6-(4-chloro-2-fluoro-3-(1-fluoroethyl)phenyl)-5-fluoropicolinate] | 95% | 65% | 98% | – | – | – | – | – | – | –
4 | COc1c(Cl)ccc(-c2cc(N)c(Cl)c(C(=O)OCc3ccc(Cl)cc3Cl)n2)c1F [Compound 17, 2,4-dichlorobenzyl 4-amino-3-chloro-6-(4-chloro-2-fluoro-3-methoxyphenyl)picolinate] | – | – | – | 98% | – | – | – | – | – | Visual Injury (%) CYPRO [8]: 100%
5 | COC(=O)c1nc(-c2ccc(Cl)c(OC)c2Cl)cc(N)c1Cl [Compound C, methyl 4-amino-3-chloro-6-(2,4-dichloro-3-methoxyphenyl)picolinate, reference compound] | – | – | – | 36% | 83% | 90% | 96% | 84% | 74% | –
6 | COc1c(Cl)ccc(-c2cc(N)c(Cl)c(C(=O)OCc3ccccc3)n2)c1Cl [Compound 38, benzyl 4-amino-3-chloro-6-(2,4-dichloro-3-methoxyphenyl)-picolinate] | – | – | – | 99% | 100% | 100% | 100% | 90% | 90% | –
